Source: US20240208984A1, “BIVALENT LIGANDS TO UNDERSTAND DIMERIZATION OF THE MU OPIOID RECEPTOR AND THE CHEMOKINE RECEPTOR CCR5 IN NEUROLOGICAL DISORDERS” (priority 2021, published 2024)

How the values were obtained:
mouse MOR = mouse MOR (Mus musculus (Mouse), UniProt P42866); assay: In vitro MOR radioligand binding assay; conditions: [3H]naloxone radioligand; mMOR-CHO; mean ± SEM; read-out: MOR Radioligand Binding Affinity Ki
Protocol: In vitro MOR radioligand binding studies. All bivalent ligands were first tested for their binding affinity to the MOR. The competitive radioligand binding assay was conducted using monoclonal mouse MOR expressed in CHO cell lines (mMOR-CHO).
In vitro MOR radioligand binding assay The competition binding assay was conducted using monoclonal mouse MOR expressed in Chinese hamster ovary (CHO) cell lines. In this assay, 30 μg of membrane protein was incubated with the radioligand [^3H] naloxone in the presence of different concentrations of tested compounds in TME buffer (50 mM Tris, 3 mM MgCl2, and 0.2 mM EGTA, pH 7.4) for 1.5 h at 30° C. The bound radioligand was separated by filtration using a Brandel harvester. […] The IC50 values were determined and converted to Ki values using the Cheng-Prusoff equation: Ki=IC50/[1+([L*]/KD)], where [L*] is the concentration of the radioligand and KD is the KD of the radioligand was determined.73

mouse mu opioid receptor = mouse mu opioid receptor (Mus musculus (Mouse), UniProt P42866); assay: Calcium mobilization assay in mMOR-CHO cells; format: cell-based
Sequence of mouse mu opioid receptor (P42866 whole entry, looked up): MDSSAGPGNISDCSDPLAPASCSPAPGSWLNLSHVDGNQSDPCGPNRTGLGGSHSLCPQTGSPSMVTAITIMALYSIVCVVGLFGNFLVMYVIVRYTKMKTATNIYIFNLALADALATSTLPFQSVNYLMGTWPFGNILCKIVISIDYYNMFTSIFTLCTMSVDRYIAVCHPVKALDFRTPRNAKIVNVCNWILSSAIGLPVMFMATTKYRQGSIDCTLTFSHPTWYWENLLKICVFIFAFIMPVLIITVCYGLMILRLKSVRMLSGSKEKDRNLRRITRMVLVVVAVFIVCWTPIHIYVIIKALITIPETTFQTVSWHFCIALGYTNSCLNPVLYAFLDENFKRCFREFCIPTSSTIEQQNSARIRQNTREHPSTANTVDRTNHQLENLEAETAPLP
Protocol: Calcium mobilization assay results in mMOR-CHO cells. The pharmacological profiles of the three newly prepared MOR bivalent ligands were further characterized for their effects on MOR-dependent intracellular Ca^2+ signaling in an mMOR-CHO cell line that was transfected with chimeric Gqi5 protein as previously described.
A CHO cell line stably expressing the mouse mu opioid receptor (mMOR-CHO) was used for this assay. The cells were transfected with Gαqi5 for 4 h and then plated (10,000 cells/well) to black 96-well plates with clear bottoms (Greiner Bio-One). After 24 h of incubation, the culture medium was removed, and the cells were washed with assay buffer (50 mL of HBSS, 1 mL of HEPES, 250 μL of probenecid, 50 μL of 1 mM CaCl2, and 50 μL of 1 mM MgCl2). The tested compounds were dissolved in DMSO as a stock solution for the assay (1 M). For agonist assays, cells were then incubated with 50 μL/well loading buffer (6 mL of assay buffer, 24 μL of Fluo4-AM solution (Invitrogen), and 12 μL of probenecid solution) for 60 min. Following incubation, different concentrations of the tested compounds were added by a FlexStation3 microplate reader (Molecular Devices) and read at ex494/em516. Each concentration was run in triplicate. For antagonism studies, the cells were incubated with the same loading buffer as the agonist assay for 60 min. Then, different concentrations of the tested compounds (20 μL/well) were manually added to each well followed by another 15 min of incubation. […] Each concentration was run in triplicate. The corresponding IC50 value of each compound was calculated by non-linear regression using GraphPad Prism 8.0.1 (GraphPad Software, San Diego, CA).

[1] = molecular target: Rhesus macaque chemokine CCR5 receptors (Macaca mulatta (Rhesus macaque), UniProt P61813); assay: In vitro CCR5 radioligand binding assay; conditions: [125I]MIP-1α radioligand; Chem-1 cells; Cheng-Prusoff; mean ± SEM; read-out: CCR5 Radioligand Binding Affinity Ki
Protocol: In vitro CCR5 radioligand binding studies. To verify the binding affinity of the bivalent ligands to the CCR5, the competitive radioligand binding assay was conducted in recombinant rhesus macaque CCR5-expressing Chem-1 cells, and macrophage inflammatory protein 1 beta (MIP-1β) was used as a control.
The CCR5 competitive radioligand binding assay was conducted following previously reported studies.74, 75 Rhesus macaque chemokine CCR5 receptors expressed in Chem-1 cells are assayed in modified HEPES buffer (50 mM HEPES, 1 mM CaCl2, 5 mM MgCl2, 0.2% BSA, pH 7.4). 3 μg of membrane protein was incubated with 0.10 nM [^125I]MIP-1α in the presence of six concentrations of tested compounds (10 μM, 1 μM, 0.1 μM, 10 nM, 1 nM, and 0.1 nM) for 90 min at 25° C. Non-specific binding is estimated in the presence of 0.1 μM MIP-1β.

HIV-1BaL [2] = assay: HIV-1BaL infection assay in MOR-CCR5 co-expressed TZM-b1 cells; format: cell-based; conditions: read-out: Inhibition of HIV-1BaL infection EC50
Protocol: CCR5-expressing TZM-b1 cells co-express an HIV-1 long-terminal repeat (LTR)-firefly luciferase reporter that can be activated by Tat (trans-activator of transcription) in cells expressing HIV. […] To initially determine whether the co-expression of MOR affected HIV-1 entry/expression, OPRM1- or control plasmid-transfected TZM-b1 cells were exposed to varying concentrations of HIV-1BaL and HIV-1 entry was calculated based on LTR-driven luciferase activity.
HIV-1BaL.01 was kindly donated and expanded in Phytohemagglutinin (PHA)-activated Peripheral Blood Mononuclear Cells (PBMCs). The amount of viral particles was determined by commercial ELISA for p24 capsid antigen (Zeptometrix) and aliquots were stored at −80° C. The TZM-b1, a cell line contained integrated copies of luciferase under control of the HIV-1 long-terminal repeat (LTR), were kindly donated.
Cells were transfected with plasmid containing GFP-tagged human opioid receptor mu 1 gene (OPRM1; Origene) or with the original empty vector also containing GFP (control plasmid; Origene) and selected for 2 weeks with 2 mg/ml G418 (Invivogen) in DMEM (Hyclone) supplemented with 1×MEM Non-essential amino acids (Gibco), 10% heat-inactivated FBS (Hyclone) and 100 U Penicillin-0.1 mg/ml Streptomycin (Sigma). Then, GFP+ cells were sorted out twice by flow cytometry (BDFACSAria model, Becton-Dickinson) and maintained in the conditions mentioned above with 800 μg/ml G418. For the infection, cells were detached from 25 cm2 flasks with 0.25% Trypsin (Sigma), washed by centrifugation (400 g—10 mins) and viable cells determined by Trypan blue (Sigma) exclusion. […] Luciferase activity was evaluated following the addition of 100 μL/well of 2× luciferase substrate containing lysis buffer (BRIGHT-GLO™ Luciferase Substrate, Promega) after 2-3 days of infection.
Luminescence, reported as relative luminescence units (RLU), was evaluated in PHERASTAR® FS plate reader and results expressed as percentage of inhibition relative to vehicle-treated, infected cells (100% infection).

[3] = system: HIV-1BaL Env-pseudotyped Luc-expressing virus; assay: HIV-1-Luc infection assay in PBMCs; format: cell-based; conditions: non-stimulated PBMCs; 1000 nM
Excerpt: (§1) Peripheral blood mononuclear cells (PBMCs) include large numbers of CCR5-expressing leukocytes and are susceptible to infection by R5-tropic HIV-1 strains.
Isolated human PBMCs were obtained commercially from the New York Blood Bank and exempt from Human Subjects criteria (NIH Exemption 4: website located at nih.gov/sites/default/files/exemption_infographic_v7_508c-3-21-19.pdf). The adult PBMCs are publicly available and no information or identifiers are provided so subjects cannot be identified. […] After 3 days in culture, supernatants were harvested, floating cells removed by centrifugation, HIV-1 p24 Ag measured by commercial ELISA (Zeptometrix), and viral aliquots stored at −80° C. […]
PBMCs were isolated from buffy coats of healthy blood donors by centrifugation in Ficoll gradient (MP Biomedicals). Viable cells, determined by Trypan blue exclusion, were stimulated, or not, for 2 days with 5 μg/mL PHA (Sigma). […]
After 2 days of infection, 100 μL of 2× Luciferase Substrate containing lysing buffer (BRIGHT-GLO™ Luciferase Assay System, Promega) were added per well, plate was agitated for 2 mins (700 rpm) and Luminescence was evaluated using a PHERASTAR® FS plate reader (BMG Labtech).

[4] = system: HIV-1BaL Env-pseudotyped Luc-expressing virus; assay: HIV-1 infection assay in PHA-stimulated PBMC cells; format: cell-based; conditions: PHA-stimulated PBMCs, 100 nM
Protocol: as §1
In a 24-well plate, PHA-stimulated PBMC cells from healthy donors were infected by incubation with the HIV-1BaL.01 env-pseudotyped Luc virus. A concentration of HIV-1 p24 50 pg/106 cells was used, and uninfected cells served as a negative control. […] After approximately 18-20 h, the supernatant was removed and stored at −80° C., cells were rinsed twice with PBS and lysed. The lysate was subsequently tested for the relative Tat protein expression by using a luciferase assay system (Promega). Luciferase activity was measured using a PHERASTAR® FS plate reader (BMG Labtech).

HIV-1BaL [5] = assay: Anti-HIV-1BaL activity (reverse transcriptase activity) in GHOST CCR5 cells; conditions: read-out: Inhibition of HIV-1BaL EC50, RT activity, triplicate
Protocol: This assay was run in GHOST-CCR5 cells using the CCR5-tropic viral strain HIV-1BaL.
100 μL of GHOST CCR5 cells at a density of 1×10^4 cells/well in 10% complete DMEM (10% FBS with 1% L-glutamine and 1% Penicillin/Streptomycin) media were plated in a 96-well flat bottom plate and incubated for 24 h at 37° C./5% CO2. Following the incubation, 100 μL of each compound at 6 concentrations were added in triplicate to both efficacy and toxicity plates followed by 100 μL of HIV-1BaL at a pre-determined titer to the plates being evaluated for efficacy and 50 μL of complete DMEM to the plates being evaluated for cytotoxicity. The cultures were incubated for 6 days at 37° C./5% CO2. Following the incubation, 50 μL of cell culture supernatant was removed from the wells of the efficacy plates for subsequent evaluation of virus content by reverse transcriptase activity assay. The toxicity plates being evaluated for cytotoxicity were stained with XTT.
RT activity (EC50 values) was measured using standard radioactivity incorporation polymerization assay. 1 μL of titrated thymidine triphosphate (TTP) at 1 Ci/mL was used per enzyme reaction. Poly rA and oligo dT were prepared at concentrations of 0.5 mg/mL and 1.7 Units/mL, respectively, from a stock solution which was kept at −20° C. The RT reaction buffer was prepared fresh and consists of 125 μL of 1M EGTA, 125 μL of dH2O, 125 μL of 20% Triton X-100, 50 μL of 1M Tris (pH 7.4), 50 μL of 1M DTT, and 40 μL of 1 M MgCl2. For each reaction, 1 μL of TTP, 4 μL of dH2O, 2.5 μL of rAdT and 2.5 μL of reaction buffer were mixed. 10 μL of this reaction mixture was placed in a round bottom microtiter plate with 15 μL of virus containing supernatant. The plate was incubated at 37° C. in a humidified incubator for 60-90 min. […] The dried filtermat was placed in a plastic sleeve and 4 mL of Opti-Fluor O (Perkin Elmer, catalog #1205-440) scintillation fluid was added to each sleeve. […] TC50 values for the tested compounds were derived by measuring the reduction of the tetrazolium dye XTT (2,3-bis(2-methoxy-4-nitro-5-sulfophenyl)-5-[(phenylamino)carbonyl]-2H-tetrazolium hydroxide). XTT in metabolically active cells is metabolized by the mitochondrial enzyme NADPH oxidase to a soluble formazan product. XTT solution was prepared as a stock of 1 mg/mL in RPMI-1640 without additives. Phenazine methosulfate (PMS) solution was prepared at 0.15 mg/mL in DPBS and stored in the dark at −20° C. XTT/PMS stock was prepared immediately before use by adding 40 μL of PMS per mL of XTT solution. […] The plates were sealed and inverted several times to mix the soluble formazan product and the plate was read at 450 nm (650 nm reference wavelength) with a Molecular Devices SPECTRAMAX® Plus 384 96 well format spectrophotometer.

Sequence of mouse MOR (P42866 whole entry, looked up): as the sequence (P42866 whole entry, looked up) above

## CC(C)c1nnc(CCNC(=O)COCC(=O)NCCCCCCCNC(=O)COCC(=O)NC2CC[C@@]3(O)[C@H]4Cc5ccc(O)c6c5[C@@]3(CCN4CC3CC3)[C@H]2O6)n1C1CC2CCC(C1)N2CC[C@H](NC(=O)C1CCC(F)(F)CC1)c1ccccc1 (some centres unmarked) [VZMC013]
Mouse MOR
  Ki: 6.05 nM
Mouse mu opioid receptor; agonist mode, varying concentrations
  MOR agonism in Ca2+ mobilization: No agonism was observed
Mouse mu opioid receptor; read-out: Inhibition of DAMGO Induced Ca2+ Mobilization IC50, mMOR-CHO transfected with Gqi5, DAMGO 500 nM, mean ± SEM
  IC50: 50 ± 2.45 nM
[1]
  Ki: 3.29 nM
HIV-1BaL [2]; OPRM1 transfected TZM-b1 cells, morphine 100 μM added
  EC50: 247 nM
HIV-1BaL [2]; OPRM1 transfected TZM-b1 cells, without morphine
  EC50: 368 nM
HIV-1BaL [2]; control plasmid transfected TZM-b1 cells
  EC50: 610 nM
[3]
  Inhibition of HIV-1-Luc infectivity: nearly complete blockade
[4]; co-exposed to DAMGO 10 nM
  decrease in HIV expression: 69%
[4]; co-exposed to morphine 10 nM
  decrease in HIV expression: 55%
[4]; no opioid
  reduction in luminescence (viral entry): 22%
GHOST CCR5 cells; GHOST CCR5 cells, XTT, triplicate
  Cytotoxicity TC50: >100000 nM
GHOST CCR5 cells; any concentration ≤100 μM, untreated cells = 100%
  cell viability: ~100%
HIV-1BaL [5]
  EC50: 93 nM
